For data set [1], the system named is G9a (histone H3 lysine 9 methyltransferase). As to the kind of experiment: Methylation inhibition assay (AlphaLisa), G9a. Type of data set: biochemical. The note with it: 50 µM; for inhibitory activity against G9a: Figure 3; for Relative selectivity index of DNMT1 vs G9a: 1 - selected enzyme inhibition/DNMT1 inhibition. The protocol: All the compounds were first screened using an ELISA EpiQuik DNA methyltransferase (DNMT) activity/inhibitor assay kit (Epigentek). To measure the effects of the compounds on human DNMT1 activity, 200 nM purified DNMT1 was incubated with 50 µM and 100 µM of the different compounds and S-adenosylmethionine in the DNMT assay buffer in the assay plate at 37 °C for 2 h[36]. Next, every sample was incubated with the capture and detection antibody, followed by incubation with developer solution for 10 min at room temperature. The absorbance was measured at 450 nm using a POLARstar Omega microplate reader (BMG). S-Adenosylhomocysteine (AdoHcy) was used as a positive control. Methylation inhibition assays for EZH2, LSD, and G9a were performed in modified Tris, pH 9.0, buffer using AlphaLisa technology. An amount of 10 µL of the reaction system contained a corresponding concentration of SAM (Sigma) (EZH2 50 µM, LSD 50 µM, and G9a 50 µM), which was the Km value in each enzymatic reaction, plus 100 nM biotinylated peptide H3 (1–21) (synthesis by GLChina) and the relevant enzyme concentration (0.03 nM EZH2, 0.03 nM LSD, and 0.03 nM G9a). The proteins were preincubated with various compound concentrations for 15 min at room temperature before the substrate and SAM were added. After 60 min of incubation at room temperature, acceptor and donor AlphaLisa beads were added according to the manufacturer’s recommendations. The signals were read in Alpha mode with an EnSpire multimode plate reader (PerkinElmer). IC50 values were derived by fitting the data for the inhibition percentage to a dose-response curve by non-linear regression in GraphPad Prism 5.0[20].
In addition to DNMT1, there are many other methyltransferases that can bind with S-adenosyl-L-methionine (SAM) to facilitate transmethylation reactions[24]^,[25]. To investigate the selectivity of these potent compounds for DNMT1, we then evaluated the inhibitory activities against DNMT1 and other important methyltransferases at the concentration of 50 µM, including DNMT3A/3L, DNMT3B/3L, and other SAM-dependent enzymes[1]^,[2]^,[26], such as EZH2[27], LSD1[28], G9a (histone H3 lysine 9 methyltransferase)[29].
493 Relative selectivity index
494 Relative selectivity index of DNMT1 is calculated by formula: DNMT1-selectivity
495 index =1 - selected enzyme inhibition/DNMT1 inhibition. The closer
496 that this value is to 1 or even more than 1, the better DNMT1-selectivity the of the
498 Table S1. Relative selectivity index of DNMT1
Cpd. […]

The next data set concerns the target DNMT1 (Homo sapiens, UniProt P26358). As to the kind of experiment: H3-labelled radioactive methylation assay. Type of data set: biochemical. The following applies: H3-labeled radioactive methylation assay; 40 nM DNMT1. Put shortly: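 DNMT1 (40 nM) was preincubated with a compound range for 15 min at room temperature, then given 0.1 µM ^3H-SAM and 0.25 µg/mL poly(dI-dC)·poly(dI-dC) in 50 mM Tris-HCl pH 8.0, 1 mM DTT, 5% glycerol, 100 µg/mL BSA. After 60 min at 37 °C, filter-bound radioactivity was counted by scintillation. IC50 was taken from a non-linear dose-response fit.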

For another data set, the system named is human DNMT1. The experiment in a line: ELISA EpiQuik DNA methyltransferase (DNMT) activity/inhibitor assay. Type of data set: biochemical. The note with it: 200 nM purified DNMT1, EpiQuik kit; for Inh% at 50 μM: 50 μM compound; for Inh% at 100 μM: 100 μM compound. Put shortly:
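Purified human DNMT1 (200 nM) was incubated 2 h at 37 °C with SAM and compound at 50 µM and 100 µM. Methylation was detected by antibody-based ELISA read at 450 nm.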
A general note: In an ELISA, binding on a coated surface is turned into a signal by an enzyme label.

Data set [2] concerns HCT116 (human colon cancer cells). The experiment in a line: MTT assay, HCT116. Type of data set: cell-based. As for the experimental part:
The human lung cancer cells (A549) and human colon cancer cells (HCT116) were cultured in an RPMI-1640 medium containing 10% FBS, 100 U/mL streptomycin, and 100 U/mL penicillin at 37 °C in a humidified atmosphere with 5% CO2. All compounds were dissolved in DMSO and stock solutions were stored at −20 °C. Reagents were freshly diluted to the marked concentrations with a culture medium before use. DMSO concentration in experimental conditions never exceeded 0.1% (v/v). All cell lines were provided by the cell laboratory, School of pharmaceutical sciences, Guangzhou Medical University.
Cell viability was detected using an MTT assay kit. Cells were seeded into 96-well plates at a density of ∼1.0 × 10^4/well. 24 h later, sextuplicate wells were treated with media and new compounds at a fixed concentration (50 µM). After 24, 48, and 72 h, the drug-containing medium was replaced by a 100 µL fresh medium with 5 mg/mL MTT solution. After 4 h of incubation, the medium with MTT was removed, and 100 µL of DMSO was added to each well. The plates were gently agitated until the purple formazan crystals were dissolved, and the OD490 was determined using a […] (Olympus BX53, Japan). The data were calculated and plotted as the percent viability compared to the control.
(In general: Tetrazolium assays rely on reduction of a dye to a coloured formazan, in cell work by metabolically active cells.)

The mark [3] stands for this setting: HCT-116, 24 h, read-out: Inh % at 50 μM, HCT116, 24 h.
Setting [4] is: HCT-116, 48 h, read-out: Inh % at 50 μM, HCT116, 48 h.
Setting [5] is: HCT-116, 72 h, read-out: Inh % at 50 μM, HCT116, 72 h.

Usually melting point stands for the temperature, or range, at which the solid turns liquid. As usually defined, the IC50 is the concentration that gives 50% inhibition.

Like-named read-outs stand apart in the source and are kept apart here.

DNMT1, sequence (P26358 whole entry): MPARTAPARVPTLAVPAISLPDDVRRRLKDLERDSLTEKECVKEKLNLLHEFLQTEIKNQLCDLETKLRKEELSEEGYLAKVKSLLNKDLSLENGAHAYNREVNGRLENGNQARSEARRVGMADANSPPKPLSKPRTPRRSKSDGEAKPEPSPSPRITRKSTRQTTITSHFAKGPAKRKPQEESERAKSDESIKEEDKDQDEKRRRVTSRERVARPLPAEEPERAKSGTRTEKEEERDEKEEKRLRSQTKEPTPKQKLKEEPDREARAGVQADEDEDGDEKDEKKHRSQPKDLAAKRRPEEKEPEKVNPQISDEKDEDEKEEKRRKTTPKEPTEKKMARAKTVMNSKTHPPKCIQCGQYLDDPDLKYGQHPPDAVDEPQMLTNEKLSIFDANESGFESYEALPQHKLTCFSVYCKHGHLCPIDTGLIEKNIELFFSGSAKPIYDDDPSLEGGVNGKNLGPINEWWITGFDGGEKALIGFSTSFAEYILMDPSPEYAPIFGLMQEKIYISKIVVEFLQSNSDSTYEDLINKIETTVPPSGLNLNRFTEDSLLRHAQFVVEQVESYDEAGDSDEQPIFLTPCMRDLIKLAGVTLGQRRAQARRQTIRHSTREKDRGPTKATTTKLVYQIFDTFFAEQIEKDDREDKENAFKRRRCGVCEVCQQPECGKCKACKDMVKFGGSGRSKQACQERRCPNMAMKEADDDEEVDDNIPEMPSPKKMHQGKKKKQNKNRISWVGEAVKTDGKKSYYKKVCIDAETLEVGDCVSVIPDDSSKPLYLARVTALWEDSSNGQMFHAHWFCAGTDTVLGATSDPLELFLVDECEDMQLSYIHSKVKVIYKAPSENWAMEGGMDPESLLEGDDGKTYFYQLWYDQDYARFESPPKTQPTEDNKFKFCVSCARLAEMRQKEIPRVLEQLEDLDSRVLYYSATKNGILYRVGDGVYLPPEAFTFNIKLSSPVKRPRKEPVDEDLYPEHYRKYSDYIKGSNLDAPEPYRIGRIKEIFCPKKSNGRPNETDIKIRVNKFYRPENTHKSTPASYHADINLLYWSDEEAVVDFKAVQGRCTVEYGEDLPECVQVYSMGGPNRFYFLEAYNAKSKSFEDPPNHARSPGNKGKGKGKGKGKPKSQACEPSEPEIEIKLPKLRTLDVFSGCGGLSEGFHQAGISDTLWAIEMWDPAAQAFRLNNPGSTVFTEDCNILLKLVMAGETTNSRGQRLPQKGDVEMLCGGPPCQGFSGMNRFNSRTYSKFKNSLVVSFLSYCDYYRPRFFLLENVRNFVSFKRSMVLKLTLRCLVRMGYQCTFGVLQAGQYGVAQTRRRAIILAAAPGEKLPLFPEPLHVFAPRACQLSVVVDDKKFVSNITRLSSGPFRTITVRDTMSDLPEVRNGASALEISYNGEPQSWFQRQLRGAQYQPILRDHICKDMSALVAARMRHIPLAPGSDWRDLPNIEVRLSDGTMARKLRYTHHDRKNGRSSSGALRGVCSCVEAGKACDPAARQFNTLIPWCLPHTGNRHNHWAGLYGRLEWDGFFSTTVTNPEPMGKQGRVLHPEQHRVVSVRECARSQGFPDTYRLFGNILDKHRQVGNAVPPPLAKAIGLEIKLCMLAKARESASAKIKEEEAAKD

For the compound `CC(C)NCC(O)COC(Cn1c2ccc(F)cc2c2cc(F)ccc21)Cn1c2ccc(F)cc2c2cc(F)ccc21` (centres unmarked) [WK-22, 1-((1,3-Bis(3,6-difluoro-9H-carbazol-9-yl)propan-2-yl)oxy)-3-(isopropylamino)propan-2-ol], the melting point was 89 to 91 °C. In data set [1], the “inhibitory activity against G9a” value is “nearly no inhibitory activities” and the “Relative selectivity index of DNMT1 vs G9a” value amounted to 0.9. In addition, the concentration for half-maximal inhibition (IC50) on DNMT1 was 4.9 µM. Further, in the data set with human DNMT1, the “Inh% at 50 μM” value is given as 99% and the “Inh% at 100 μM” value came to 100%. For the same compound, the inhibition at 50 µM in data set [2] (setting [3]) is 77.6%. The inhibition at 50 µM in data set [2] (setting [4]) came out at 91.8%. The inhibition at 50 µM in data set [2] (setting [5]) was found to be 97.4%.

Take `CC(C)NCC(O)COC(Cn1c2ccccc2c2cc(F)ccc21)Cn1c2ccccc2c2cc(F)ccc21` (centres unmarked) [WK-23, 1-((1,3-bis(3-fluoro-9H-carbazol-9-yl)propan-2-yl)oxy)-3-(isopropylamino)propan-2-ol]: in data set [1], the “inhibitory activity against G9a” value is on record as “nearly no inhibitory activities” and the “Relative selectivity index of DNMT1 vs G9a” value came to 0.89. For the same compound, the half-maximal inhibitory concentration (IC50) at DNMT1 is 5 µM. Also, in the data set on human DNMT1, the “Inh% at 50 μM” value is reported as 99% and the “Inh% at 100 μM” value came to 100%. Besides, the inhibition at 50 µM in data set [2] (setting [3]) stood at 87.7%. The inhibition at 50 µM in data set [2] (setting [4]) stood at 92.9%. Moreover, in data set [2] (setting [5]), the inhibition at 50 µM was 97.5%.

For the origin of these results see PMC9186373, “Design, synthesis, and biological evaluation of novel carbazole derivatives as potent DNMT1 inhibitors with reasonable PK properties” (Journal of Enzyme Inhibition and Medicinal Chemistry, 2022).
